According to PubChem BioAssay AID2060895 (Molecular Pharmacology Branch, DTP, NCI, 2025):

System: PDC 899932-113-R3-J6 complex spheroid viability
Test: Anticancer human tumor 899932-113-R3-J6-PDC patient-derived melanoma cell line growth inhibition [RAS]
Conditions: for IC50: curve of first compound; for viability, T/C: stronger effect = lower value
In short: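 Multi-cell-type spheroids: tumor cells plus HUVEC endothelial cells and mesenchymal stem cells. RAS-pathway inhibitors were combined with targeted agents, each dosed in half-log steps down from clinical Cmax, or from 10 microM when Cmax was unknown.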

[1] = second compound 0.000949 µM, first compound 0.0316 µM
[2] = second compound 0.000949 µM, first compound 0.1 µM
[3] = second compound 0.000949 µM, first compound 0.316 µM
[4] = second compound 0.000949 µM, first compound 1 µM
[5] = second compound 0.000949 µM, first compound 3.16 µM
[6] = second compound 0.000949 µM, first compound 10 µM
[7] = second compound 0.003 µM, first compound 0.0316 µM
[8] = second compound 0.003 µM, first compound 0.1 µM
[9] = second compound 0.003 µM, first compound 0.316 µM
[10] = second compound 0.003 µM, first compound 1 µM
[11] = second compound 0.003 µM, first compound 3.16 µM
[12] = second compound 0.003 µM, first compound 10 µM
[13] = second compound 0.00949 µM, first compound 0.0316 µM
[14] = second compound 0.00949 µM, first compound 0.1 µM
[15] = second compound 0.00949 µM, first compound 0.316 µM
[16] = second compound 0.00949 µM, first compound 1 µM
[17] = second compound 0.00949 µM, first compound 3.16 µM
[18] = second compound 0.00949 µM, first compound 10 µM
[19] = second compound 0.03 µM, first compound 0.0316 µM
[20] = second compound 0.03 µM, first compound 0.1 µM
[21] = second compound 0.03 µM, first compound 0.316 µM
[22] = second compound 0.03 µM, first compound 1 µM
[23] = second compound 0.03 µM, first compound 3.16 µM
[24] = second compound 0.03 µM, first compound 10 µM
[25] = second compound 0.0949 µM, first compound 0.0316 µM
[26] = second compound 0.0949 µM, first compound 0.1 µM
[27] = second compound 0.0949 µM, first compound 0.316 µM
[28] = second compound 0.0949 µM, first compound 1 µM
[29] = second compound 0.0949 µM, first compound 3.16 µM
[30] = second compound 0.0949 µM, first compound 10 µM
[31] = second compound 0.3 µM, first compound 0.0316 µM
[32] = second compound 0.3 µM, first compound 0.1 µM
[33] = second compound 0.3 µM, first compound 0.316 µM
[34] = second compound 0.3 µM, first compound 1 µM
[35] = second compound 0.3 µM, first compound 3.16 µM
[36] = second compound 0.3 µM, first compound 10 µM
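Wherever viability, T/C is given: spheroids exposed to agents for seven days before readout; 100% = DMSO vehicle control wells.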

`CC1(O)CCCC1n1c(=O)c(C(F)F)cc2cnc(NC3CCN(S(C)(=O)=O)CC3)nc21` (centres undefined) + CCn1c(-c2cc(N3CCN(C)CC3)cnc2C(C)OC)c2c3cc(ccc31)-c1csc(n1)CC(NC(=O)C1CC1C)C(=O)N1CCCC(N1)C(=O)OCC(C)(C)C2 was tested. Which IC50 (second compound 0.000949 µM) did it give?
Its IC50 is 0.239 µM.

And the IC50 (second compound 0.003 µM)?
The IC50 was under 0.0316 µM.

What about the IC50 (second compound 0.00949 µM) of the same compound?
The IC50 was under 0.0316 µM.

And the IC50 (second compound 0.03 µM)?
The IC50 was under 0.0316 µM.

What about the IC50 (second compound 0.0949 µM) of the same compound?
The IC50 was under 0.0316 µM.

What about the IC50 (second compound 0.3 µM) of the same compound?
Its IC50 is under 0.0316 µM.

And the viability, T/C [1]?
Its viability, T/C is 77.9%.

What about the viability, T/C [2] of the same compound?
The viability, T/C was 54.2%.

And the viability, T/C [3]?
The viability, T/C was 49.5%.

And the viability, T/C [4]?
The viability, T/C was 39.3%.

What about the viability, T/C [5] of the same compound?
Its viability, T/C is 37.1%.

And the viability, T/C [6]?
The viability, T/C was 27.2%.

And the viability, T/C [7]?
Its viability, T/C is 41.5%.

And the viability, T/C [8]?
Its viability, T/C is 33%.

And the viability, T/C [9]?
The viability, T/C was 27.5%.

What about the viability, T/C [10] of the same compound?
Its viability, T/C is 25.6%.

And the viability, T/C [11]?
Its viability, T/C is 26.6%.

What about the viability, T/C [12] of the same compound?
The viability, T/C was 14.1%.

What about the viability, T/C [13] of the same compound?
Its viability, T/C is 4.88%.

And the viability, T/C [14]?
Its viability, T/C is 6.46%.

What about the viability, T/C [15] of the same compound?
The viability, T/C was 7.99%.

What about the viability, T/C [16] of the same compound?
Its viability, T/C is 9.02%.

What about the viability, T/C [17] of the same compound?
The viability, T/C was 8.75%.

What about the viability, T/C [18] of the same compound?
Its viability, T/C is 4.7%.

What about the viability, T/C [19] of the same compound?
Its viability, T/C is 2.99%.

And the viability, T/C [20]?
Its viability, T/C is 2.96%.

And the viability, T/C [21]?
Its viability, T/C is 3.21%.

What about the viability, T/C [22] of the same compound?
Its viability, T/C is 3.04%.

What about the viability, T/C [23] of the same compound?
Its viability, T/C is 3.2%.

And the viability, T/C [24]?
The viability, T/C was 1.24%.

And the viability, T/C [25]?
Its viability, T/C is 2.41%.

What about the viability, T/C [26] of the same compound?
Its viability, T/C is 2.7%.

And the viability, T/C [27]?
The viability, T/C was 2.57%.

And the viability, T/C [28]?
The viability, T/C was 3.02%.

And the viability, T/C [29]?
The viability, T/C was 2.41%.

What about the viability, T/C [30] of the same compound?
The viability, T/C was 0.82%.

And the viability, T/C [31]?
The viability, T/C was 1.98%.

And the viability, T/C [32]?
Its viability, T/C is 2.13%.

What about the viability, T/C [33] of the same compound?
The viability, T/C was 2.07%.

What about the viability, T/C [34] of the same compound?
The viability, T/C was 1.97%.

And the viability, T/C [35]?
Its viability, T/C is 2.39%.

What about the viability, T/C [36] of the same compound?
Its viability, T/C is 0.63%.

Which results are given for `CCC(CC)c1cc(NC2CCC(N)C2)n2nccc2n1` (centres undefined) + CCn1c(-c2cc(N3CCN(C)CC3)cnc2C(C)OC)c2c3cc(ccc31)-c1csc(n1)CC(NC(=O)C1CC1C)C(=O)N1CCCC(N1)C(=O)OCC(C)(C)C2?
IC50 (second compound 0.000949 µM): 1.07 µM; IC50 (second compound 0.003 µM): < 0.0316 µM; IC50 (second compound 0.00949 µM): < 0.0316 µM; IC50 (second compound 0.03 µM): < 0.0316 µM; IC50 (second compound 0.0949 µM): < 0.0316 µM; IC50 (second compound 0.3 µM): < 0.0316 µM; viability, T/C [1]: 69.1%; viability, T/C [2]: 73.5%; viability, T/C [3]: 64.5%; viability, T/C [4]: 53.2%; viability, T/C [5]: 0.22%; viability, T/C [6]: 0.15%; viability, T/C [7]: 28.8%; viability, T/C [8]: 28.2%; viability, T/C [9]: 26.5%; viability, T/C [10]: 16.3%; viability, T/C [11]: 0.58%; viability, T/C [12]: 0.66%; viability, T/C [13]: 3.22%; viability, T/C [14]: 4.26%; viability, T/C [15]: 3.48%; viability, T/C [16]: 4.75%; viability, T/C [17]: 0.1%; viability, T/C [18]: 0.59%; viability, T/C [19]: 3.14%; viability, T/C [20]: 3.12%; viability, T/C [21]: 3.99%; viability, T/C [22]: 2.67%; viability, T/C [23]: 0.09%; viability, T/C [24]: 0.83%; viability, T/C [25]: 2.55%; viability, T/C [26]: 2.58%; viability, T/C [27]: 2.46%; viability, T/C [28]: 1.27%; viability, T/C [29]: 0.74%; viability, T/C [30]: 0.84%; viability, T/C [31]: 2.43%; viability, T/C [32]: 3.04%; viability, T/C [33]: 2.55%; viability, T/C [34]: 1.37%; viability, T/C [35]: 0.48%; viability, T/C [36]: 0.89%
